Consider 6 compounds from ChEMBL document CHEMBL4334506, “Xylodon flaviporus-Derived Drimane Sesquiterpenoids That Inhibit Osteoclast Differentiation” (J Nat Prod, 2019).

Series [1] concerns BMDM. Put plainly: Cytotoxicity against M-CSF stimulated C57BL/6 mouse bone marrow macrophage cells at 1 to 10 uM after 4 days by XTT assay. Format: cell-based. The settings on record: 96 h.
The subject of series [2] is BMDM. Kind of series: Inhibition of M-CSF/RANKL-induced osteoclast differentiation in C57BL/6 mouse bone marrow macrophage after 4 days by TRAP-staining based microscopic analysis. Format: functional, cell-based.
Series [3] is described as follows: Inhibition of M-CSF/RANKL-induced osteoclast differentiation in C57BL/6 mouse bone marrow macrophage assessed as reduction in multinucleated TRAP+ cells after 4 days by TRAP-staining based microscopic analysis. Type of series: functional, cell-based. The settings on record: C57BL/6, BMDM, 96 h.
The test system of series [4] is BMDM. Put plainly: Cytotoxicity against M-CSF stimulated C57BL/6 mouse bone marrow macrophage cells at 3 to 30 uM after 4 days by XTT assay. Format: cell-based. The settings on record: 96 h.

As to `CC1(C)CCC[C@]2(C)C3=C(COC3=O)C[C@H](OC(=O)/C=C/c3ccc(O)cc3)[C@@H]12`, in the series with BMDM [1], the Activity result was “Non-Toxic”. Further, in the series with BMDM [2], the inhibition result was “Dose-dependent effect”. The IC50 in series [3] is 0.9 µM.
For `CC1(C)CCC[C@]2(C)C3=C(COC3=O)C[C@H](OC(=O)/C=C/c3ccccc3)[C@@H]12`, the Activity result in the series on BMDM [1] is “Non-Toxic”. In addition, in the series with BMDM [2], the inhibition entry is “Dose-dependent effect”. For the same compound, in series [3], the IC50 was determined as 1.6 µM.
On to `CC1(C)CCC[C@]2(C)[C@@H]3C(=C[C@H](OC(=O)/C=C/c4ccc(O)cc4)[C@@H]12)CO[C@H]3O`, for which the Activity result in the series with BMDM [1] is on record as “Non-Toxic”. Also, the inhibition entry in the series with BMDM [2] is “Dose-dependent effect”. For the same compound, in series [3], the IC50 was found to be 2.1 µM.
Taken in the same sequence, the figures for `CO[C@@H]1OC(=O)C2=C[C@H](OC(=O)/C=C/c3ccccc3)[C@H]3C(C)(C)CCC[C@]3(C)[C@H]21` were “Non-Toxic”, “Dose-dependent effect” and 10.1 µM.
Taken in the same sequence, the figures for `CC1(C)CCC[C@]2(C)[C@H](O)C(C=O)=C[C@H](OC(=O)/C=C/c3ccccc3)[C@@H]12` were “Non-Toxic”, “Dose-dependent effect” and 8.5 µM.
Turning to `CC1(C)CCC[C@]2(C)[C@@H]3C(=C[C@H](OC(=O)/C=C/c4ccccc4)[C@@H]12)CO[C@H]3O`, in the series on BMDM [4], the Activity entry is reported as “Non-Toxic”. Moreover, the inhibition result with BMDM [2] is “Dose-dependent effect”. In addition, in series [3], the IC50 came to 10.7 µM.
